Converted amounts (≈) assume the structure as drawn. The source made the active and inactive calls. No cut-off for these calls is given here.
Experiments:
[1] = system: Human immunodeficiency virus 1; experiment: Antiviral activity against HIV1 harboring RT F227L/V106A mutant infected in human MT4 cells assessed as inhibition of virus-induced cytopathic effect incubated for 5 days by MTT assay; assay type: functional, organism-based; settings: Human immunodeficiency virus 1, MT4, 120 h
[2] = system: Human immunodeficiency virus 1; experiment: Antiviral activity against HIV1 harboring RT L100I mutant infected in human MT4 cells assessed as inhibition of virus-induced cytopathic effect incubated for 5 days by MTT assay; assay type: functional, organism-based; settings: Human immunodeficiency virus 1, MT4, 120 h
[3] = system: Human immunodeficiency virus 1; experiment: Antiviral activity against HIV1 harboring RT Y181C mutant infected in human MT4 cells assessed as inhibition of virus-induced cytopathic effect incubated for 5 days by MTT assay; assay type: functional, organism-based; settings: Human immunodeficiency virus 1, MT4, 120 h
[4] = Cytotoxicity against mock-infected human MT4 cells incubated for 5 days by MTT assay; assay type: cell-based; settings: time 5 day
[5] = system: Human immunodeficiency virus 1; experiment: Antiviral activity against HIV1 harboring RT RES056 mutant infected in human MT4 cells assessed as inhibition of virus-induced cytopathic effect incubated for 5 days by MTT assay; assay type: functional, organism-based; settings: Human immunodeficiency virus 1, MT4, 120 h
[6] = system: Human immunodeficiency virus 1; experiment: Antiviral activity against HIV1 harboring RT E138K mutant infected in human MT4 cells assessed as inhibition of virus-induced cytopathic effect incubated for 5 days by MTT assay; assay type: functional, organism-based; settings: Human immunodeficiency virus 1, MT4, 120 h
[7] = system: Human immunodeficiency virus 1; experiment: Antiviral activity against HIV1 harboring RT Y188L mutant infected in human MT4 cells assessed as inhibition of virus-induced cytopathic effect incubated for 5 days by MTT assay; assay type: functional, organism-based; settings: Human immunodeficiency virus 1, MT4, 120 h
[8] = system: Human immunodeficiency virus 1; experiment: Antiviral activity against wild type HIV-1 IIIB infected in human MT4 cells assessed as inhibition of virus-induced cytopathic effect measured after 5 days by MTT assay; assay type: functional, organism-based; settings: Human immunodeficiency virus 1, IIIB, MT4, 120 h
MT4 = experiment: Antiviral activity against wild type HIV-2 ROD infected in human MT4 cells assessed as inhibition of virus-induced cytopathic effect measured after 5 days by MTT assay; assay type: functional, cell-based; settings: Human immunodeficiency virus 2, ISOLATE ROD, time 5.0 day
[9] = system: Human immunodeficiency virus 1; experiment: Antiviral activity against HIV1 harboring K103N mutant infected in human MT4 cells assessed as inhibition of virus-induced cytopathic effect incubated for 5 days by MTT assay; assay type: functional, organism-based; settings: Human immunodeficiency virus 1, MT4, 120 h
[10] = Selectivity index, ratio of CC50 for human MT4 cells to EC50 for Antiviral activity against HIV-1 IIIB infected in human MT4 cells; assay type: toxicity, cell-based; settings: read-out: Selectivity Index
[11] = Water solubility of compound at pH 7; assay type: physicochemical
[12] = Water solubility of compound at pH 2; assay type: physicochemical
[13] = molecular target: Human immunodeficiency virus type 1 reverse transcriptase (Human immunodeficiency virus 1, UniProt Q72547); experiment: Inhibition of HIV-1 reverse transcriptase assessed as inhibition of biotin-dUTP incorporation into cDNA measured after 1 hr by ELISA
[14] = Water solubility of compound at pH 7.4; assay type: physicochemical

| Structure (SMILES) | EC50 [1] [nM] | EC50 [2] [nM] | EC50 [3] [nM] | CC50 at 120 h [4] [nM] | EC50 [5] [nM] | EC50 [6] [nM] | EC50 [7] [nM] | EC50 [8] [nM] | Activity (MT4) | EC50 [9] [nM] | selectivity ratio [10] | solubility [11] [µg/mL] | solubility [12] [µg/mL] | IC50 [13] [nM] | solubility [14] [µg/mL] |
| --- | --- | --- | --- | --- | --- | --- | --- | --- | --- | --- | --- | --- | --- | --- | --- |
| Cc1cc(C#CC=C2CCN(S(=O)(=O)N(C)C)CC2)cc(C)c1Oc1ccnc(Nc2ccc(C#N)cc2)n1 | > 4790 | > 4790 | > 4790 | 4790 | > 4790 | 750 | > 4790 | 114 | inactive | 209 | 42 |  |  |  |  |
| Cc1cc(C#CC=C2CCN(S(C)(=O)=O)CC2)cc(C)c1Oc1ccnc(Nc2ccc(C#N)cc2)n1 | > 5490 | 282 | 913 | 5490 | > 5490 | 170 | 452 | 29 | inactive | 57 | 186 | 27.1 (≈ 52.8 µM) | 20.4 (≈ 39.7 µM) | 1980 | 26.6 (≈ 51.8 µM) |
| CCOC(=O)CN1CCC(=CC#Cc2cc(C)c(Oc3ccnc(Nc4ccc(C#N)cc4)n3)c(C)c2)CC1 | > 201000 | > 201000 | > 201000 | 201000 | > 201000 | > 201000 | > 201000 | 7050 | inactive | 39000 | 29 |  |  |  |  |
| Cc1cc(C#CC=C2CCN(Cc3ccccn3)CC2)cc(C)c1Oc1ccnc(Nc2ccc(C#N)cc2)n1 | > 5580 | > 5580 | 4250 | 5580 | > 5580 | 805 | 1030 | 74 | inactive | 200 | 75 |  |  |  |  |
| O=C1Nc2ccc(Cl)cc2[C@@](C#CC2CC2)(C(F)(F)F)O1 [EFAVIRENZ] |  | 37 | 6 | > 6350 | 332 | 7 | 212 |  | inactive | 103 |  |  |  |  |  |
| Cc1ccnc2c1NC(=O)c1cccnc1N2C1CC1 [NEVIRAPINE] | > 15000 | 2520 | 10500 | > 15000 | > 15000 | 258 | > 15000 | 160 | inactive | 6550 | > 94 |  |  |  |  |
| Cc1cn([C@H]2C[C@H](N=[N+]=[N-])[C@@H](CO)O2)c(=O)[nH]c1=O [ZIDOVUDINE] | 10 | 9 | 15 | > 7480 | 24 | 35 | 12 | 21 | inactive | 22 | > 352 |  |  |  |  |
| Cc1cc(C#CC=C2CCN(Cc3ccccc3C#N)CC2)cc(C)c1Oc1ccnc(Nc2ccc(C#N)cc2)n1 | > 42400 | 8540 | 20400 | > 227000 | > 227000 | 5460 | 16100 | 376 | inactive | 1010 | > 604 |  |  |  |  |
| COC(=O)c1ccc(CN2CCC(=CC#Cc3cc(C)c(Oc4ccnc(Nc5ccc(C#N)cc5)n4)c(C)c3)CC2)cc1 | > 33600 | > 33600 | > 33600 | 33600 | > 33600 | 5460 | > 33600 | 656 | inactive | 782 | 51 |  |  |  |  |
| Cc1cc(C#N)cc(C)c1Oc1nc(Nc2ccc(C#N)cc2)nc(N)c1Br [ETRAVIRINE] | 20 | 8 | 20 | > 4610 | 67 | 19 | 21 |  | inactive |  |  |  | < 1 |  |  |
| C=CC(=O)N1CCC(=CC#Cc2cc(C)c(Oc3ccnc(Nc4ccc(C#N)cc4)n3)c(C)c2)CC1 | > 4100 | 345 | 1100 | 4100 | > 4100 | 240 | 409 | 35 | inactive | 46 | 116 |  |  |  |  |
| Cc1cc(C#CC=C2CCNCC2)cc(C)c1Oc1ccnc(Nc2ccc(C#N)cc2)n1 | 1270 | 231 | 281 | 4810 | 1460 | 204 | 211 | 16 | inactive | 39 | 294 | 60.5 (≈ 139 µM) | 47.3 (≈ 109 µM) | 130 | 67 (≈ 154 µM) |
| Nc1ccn([C@H]2CS[C@@H](CO)O2)c(=O)n1 | 2170 | 1150 | 3400 | > 87200 | 5060 | 8270 | 4560 | 5230 | inactive | 2790 | > 309 |  |  |  |  |
| Cc1cc(C#CC=C2CCN(S(=O)(=O)C3CC3)CC2)cc(C)c1Oc1ccnc(Nc2ccc(C#N)cc2)n1 | > 4660 | > 4660 | > 4660 | 4660 | > 4660 | 685 | 1410 | 98 | inactive | 284 | 47 |  |  |  |  |
| Cc1cc(C#CC=C2CCN(C(=O)OC(C)(C)C)CC2)cc(C)c1Oc1ccnc(Nc2ccc(C#N)cc2)n1 | > 56700 | 984 | > 56700 | 16700 | > 56700 | > 56700 | 5560 | 643 | inactive | > 56700 | 26 |  |  |  |  |
| CCC(=O)N1CCC(=CC#Cc2cc(C)c(Oc3ccnc(Nc4ccc(C#N)cc4)n3)c(C)c2)CC1 | 1300 | 253 | 772 | 4420 | > 4420 | 171 | 382 | 22 | inactive | 57 | 201 | 62.2 (≈ 127 µM) | 64.7 (≈ 132 µM) | 2980 | 66.5 (≈ 135 µM) |
| Cc1cc(C#CC=C2CCN(C(=O)N(C)C)CC2)cc(C)c1Oc1ccnc(Nc2ccc(C#N)cc2)n1 | > 4430 | 617 | 799 | 4430 | > 4430 | 265 | 521 | 35 | inactive | 86 | 125 |  |  |  |  |
| CCS(=O)(=O)N1CCC(=CC#Cc2cc(C)c(Oc3ccnc(Nc4ccc(C#N)cc4)n3)c(C)c2)CC1 | > 4960 | 1080 | > 1350 | 4960 | > 4960 | 493 | 1280 | 79 | inactive | 165 | 62 |  |  |  |  |
| Cc1cc(C#CC=C2CCN(Cc3cccc([N+](=O)[O-])c3)CC2)cc(C)c1Oc1ccnc(Nc2ccc(C#N)cc2)n1 | 26700 | 2770 | 5550 | 74600 | > 74600 | 2150 | 5330 | 187 | inactive | 510 | 399 |  |  |  |  |
| Cc1cc(C#CC=C2CCN(S(=O)(=O)C(C)C)CC2)cc(C)c1Oc1ccnc(Nc2ccc(C#N)cc2)n1 | > 4580 | > 4580 | > 4580 | 4580 | > 4580 | 918 | > 4580 | 171 | inactive | 573 | 27 |  |  |  |  |
